Assay results: publication PMC5392334, “Discovery and characterization of a novel irreversible EGFR mutants selective and potent kinase inhibitor CHMFL-EGFR-26 with a distinct binding mode” (Oncotarget, 2017)

Experiments:
INSR = biological target: T1, INSR (Homo sapiens, UniProt P06213); experiment: KinomeScan; assay type: binding; settings: read-out: % control
T1 construct: purchased DiscoveRx KINOMEscan

MEK4 = biological target: T2, MEK4 (Homo sapiens, UniProt P45985); experiment: KinomeScan; assay type: binding; settings: read-out: % control
T2 construct: purchased DiscoveRx KINOMEscan

[1] = biological target: T3, JAK1(JH1domain-catalytic) (Homo sapiens, UniProt P23458); experiment: KinomeScan; assay type: binding; settings: read-out: % control
T3 construct: JAK1(JH1domain-catalytic); purchased DiscoveRx KINOMEscan

PIK4CB = biological target: T4, PIK4CB (Homo sapiens, UniProt Q9UBF8); experiment: KinomeScan; assay type: binding; settings: read-out: % control
T4 construct: purchased DiscoveRx KINOMEscan

TNNI3K = biological target: T5, TNNI3K (Homo sapiens, UniProt Q59H18); experiment: KinomeScan; assay type: binding; settings: read-out: % control
T5 construct: purchased DiscoveRx KINOMEscan

MAP3K1 = biological target: T6, MAP3K1 (Homo sapiens, UniProt Q13233); experiment: KinomeScan; assay type: binding; settings: read-out: % control
T6 construct: purchased DiscoveRx KINOMEscan

SIK2 = biological target: T7, SIK2 (Homo sapiens, UniProt Q9H0K1); experiment: KinomeScan; assay type: binding; settings: read-out: % control
T7 construct: purchased DiscoveRx KINOMEscan

CAMK1G = biological target: T8, CAMK1G (Homo sapiens, UniProt Q96NX5); experiment: KinomeScan; assay type: binding; settings: read-out: % control
T8 construct: purchased DiscoveRx KINOMEscan

GRK4 = biological target: T9, GRK4 (Homo sapiens, UniProt P32298); experiment: KinomeScan; assay type: binding; settings: read-out: % control
T9 construct: purchased DiscoveRx KINOMEscan

BIKE = biological target: T10, BIKE (Homo sapiens, UniProt Q9NSY1); experiment: KinomeScan; assay type: binding; settings: read-out: % control
T10 construct: purchased DiscoveRx KINOMEscan

LTK = biological target: T11, LTK (Homo sapiens, UniProt P29376); experiment: KinomeScan; assay type: binding; settings: read-out: % control
T11 construct: purchased DiscoveRx KINOMEscan

IRAK4 = biological target: T12, IRAK4 (Homo sapiens, UniProt Q9NWZ3); experiment: KinomeScan; assay type: binding; settings: read-out: % control
T12 construct: purchased DiscoveRx KINOMEscan

AURKB = biological target: T13, AURKB (Homo sapiens, UniProt Q96GD4); experiment: KinomeScan; assay type: binding; settings: read-out: % control
T13 construct: purchased DiscoveRx KINOMEscan

NEK11 = biological target: T14, NEK11 (Homo sapiens, UniProt Q8NG66); experiment: KinomeScan; assay type: binding; settings: read-out: % control
T14 construct: purchased DiscoveRx KINOMEscan

IKK-epsilon = biological target: T15, IKK-epsilon (Homo sapiens, UniProt Q14164); experiment: KinomeScan; assay type: binding; settings: read-out: % control
T15 construct: purchased DiscoveRx KINOMEscan

[2] = biological target: T16, ABL1(E255K)-phosphorylated (Homo sapiens, UniProt P00519, E255K); experiment: KinomeScan; assay type: binding; settings: read-out: % control
T16 construct: purchased DiscoveRx KINOMEscan

LOK = biological target: T17, LOK (Homo sapiens, UniProt O94804); experiment: KinomeScan; assay type: binding; settings: read-out: % control
T17 construct: purchased DiscoveRx KINOMEscan

VRK2 = biological target: T18, VRK2 (Homo sapiens, UniProt Q86Y07); experiment: KinomeScan; assay type: binding; settings: read-out: % control
T18 construct: purchased DiscoveRx KINOMEscan

AMPK-alpha2 = biological target: T19, AMPK-alpha2 (Homo sapiens, UniProt P54646); experiment: KinomeScan; assay type: binding; settings: read-out: % control
T19 construct: purchased DiscoveRx KINOMEscan

MRCKA = biological target: T20, MRCKA (Homo sapiens, UniProt Q5VT25); experiment: KinomeScan; assay type: binding; settings: read-out: % control
T20 construct: purchased DiscoveRx KINOMEscan

CDKL5 = biological target: T21, CDKL5 (Homo sapiens, UniProt O76039); experiment: KinomeScan; assay type: binding; settings: read-out: % control
T21 construct: purchased DiscoveRx KINOMEscan

PYK2 = biological target: T22, PYK2 (Homo sapiens, UniProt Q14289); experiment: KinomeScan; assay type: binding; settings: read-out: % control
T22 construct: purchased DiscoveRx KINOMEscan

MST4 = biological target: T23, MST4 (Homo sapiens, UniProt Q9P289); experiment: KinomeScan; assay type: binding; settings: read-out: % control
T23 construct: purchased DiscoveRx KINOMEscan

OSR1 = biological target: T24, OSR1 (Homo sapiens, UniProt O95747); experiment: KinomeScan; assay type: binding; settings: read-out: % control
T24 construct: purchased DiscoveRx KINOMEscan

[3] = test system: p70S6K and eIF4E phosphorylations in H3255 cells; experiment: Signaling pathway examination (immunoblotting); assay type: cell-based, human; settings: 30 nM, 4 hours
Text: (§1) We next examined the effects of CHMFL-EGFR-26 on EGFR mediated signaling pathways in NSCLC cell lines with different EGFR mutants. […] As expected, in the EGFR wt expressing NCSCL cell lines A549 and H1355, only autophosphorylation of EGFR was affected and none of the downstream mediators was inhibited.
(§2) Cells were then collected and lysed. Phospho-EGF Receptor, Phospho-EGF Receptor (Tyr1068), Stat3, Phospho-Stat3 (Tyr705), AKT, Phospho-AKT (Ser473), Phospho-AKT (Thr308), p44/42 MAPK (Erk1/2), Phospho-p44/42 MAPK (Erk1/2) (Thr202/ Tyr204), p70 S6 Kinase, Phospho-p70 S6 Kinase (Thr389), eIF4E, Phospho-eIF4E (Ser209), 4E-BP1, Phospho-4E-BP1 (Thr37/46) antibody (Cell Signaling Technology) were used for immunoblotting.

[4] = test system: autophosphorylation of EGFR Y1068 in H1975 cell line; experiment: Signaling pathway examination (immunoblotting); assay type: cell-based, human; settings: 10 nM, 4 hours
Text: as §1, §2

NEK2 = biological target: T25, NEK2 (Homo sapiens, UniProt P51955); experiment: KinomeScan; assay type: binding; settings: read-out: % control
T25 construct: purchased DiscoveRx KINOMEscan

GSK3B = biological target: T26, GSK3B (Homo sapiens, UniProt P49841); experiment: KinomeScan; assay type: binding; settings: read-out: % control
T26 construct: purchased DiscoveRx KINOMEscan

MET = biological target: T27, MET (Homo sapiens, UniProt P08581); experiment: KinomeScan; assay type: binding; settings: read-out: % control
T27 construct: purchased DiscoveRx KINOMEscan

FLT3 = biological target: T28, FLT3 (Homo sapiens, UniProt P36888); experiment: KinomeScan; assay type: binding; settings: read-out: % control
T28 construct: purchased DiscoveRx KINOMEscan

MARK3 = biological target: T29, MARK3 (Homo sapiens, UniProt P27448); experiment: KinomeScan; assay type: binding; settings: read-out: % control
T29 construct: purchased DiscoveRx KINOMEscan

KIT-autoinhibited = biological target: T30, KIT-autoinhibited (Homo sapiens, UniProt P10721); experiment: KinomeScan; assay type: binding; settings: read-out: % control
T30 construct: purchased DiscoveRx KINOMEscan

PIK3CB = biological target: T31, PIK3CB (Homo sapiens, UniProt P42338); experiment: KinomeScan; assay type: binding; settings: read-out: % control
T31 construct: purchased DiscoveRx KINOMEscan

EPHB1 = biological target: T32, EPHB1 (Homo sapiens, UniProt P54762); experiment: KinomeScan; assay type: binding; settings: read-out: % control
T32 construct: purchased DiscoveRx KINOMEscan

LCK = biological target: T33, LCK (Homo sapiens, UniProt P06239); experiment: KinomeScan; assay type: binding; settings: read-out: % control
T33 construct: purchased DiscoveRx KINOMEscan

FLT3(N841I) = biological target: T34, FLT3(N841I) (Homo sapiens, UniProt P36888, N841I); experiment: KinomeScan; assay type: binding; settings: read-out: % control
T34 construct: purchased DiscoveRx KINOMEscan

SNARK = biological target: T35, SNARK (Homo sapiens, UniProt Q9H093); experiment: KinomeScan; assay type: binding; settings: read-out: % control
T35 construct: purchased DiscoveRx KINOMEscan

EIF2AK1 = biological target: T36, EIF2AK1 (Homo sapiens, UniProt Q9BQI3); experiment: KinomeScan; assay type: binding; settings: read-out: % control
T36 construct: purchased DiscoveRx KINOMEscan

T29 sequence (P27448 whole entry): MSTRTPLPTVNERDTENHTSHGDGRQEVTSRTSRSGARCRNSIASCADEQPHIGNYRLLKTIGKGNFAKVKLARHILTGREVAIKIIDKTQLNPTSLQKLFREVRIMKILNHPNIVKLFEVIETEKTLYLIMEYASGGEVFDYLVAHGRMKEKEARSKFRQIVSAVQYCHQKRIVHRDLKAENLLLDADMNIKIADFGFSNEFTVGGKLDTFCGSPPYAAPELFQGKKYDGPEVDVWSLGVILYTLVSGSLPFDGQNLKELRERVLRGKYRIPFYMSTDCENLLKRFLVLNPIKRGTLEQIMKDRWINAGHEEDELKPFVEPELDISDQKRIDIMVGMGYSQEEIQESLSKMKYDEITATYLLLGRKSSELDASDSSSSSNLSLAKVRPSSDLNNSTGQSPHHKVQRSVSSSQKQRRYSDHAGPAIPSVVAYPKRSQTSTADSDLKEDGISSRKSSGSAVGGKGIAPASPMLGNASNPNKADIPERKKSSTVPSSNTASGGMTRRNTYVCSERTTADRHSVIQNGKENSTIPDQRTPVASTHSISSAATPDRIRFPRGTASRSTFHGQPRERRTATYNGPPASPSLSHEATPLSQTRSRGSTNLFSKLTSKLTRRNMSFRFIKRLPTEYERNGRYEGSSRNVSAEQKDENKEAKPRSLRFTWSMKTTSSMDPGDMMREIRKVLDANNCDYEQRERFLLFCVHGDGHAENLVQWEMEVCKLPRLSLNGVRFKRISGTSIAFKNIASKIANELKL
T10 sequence (Q9NSY1 whole entry): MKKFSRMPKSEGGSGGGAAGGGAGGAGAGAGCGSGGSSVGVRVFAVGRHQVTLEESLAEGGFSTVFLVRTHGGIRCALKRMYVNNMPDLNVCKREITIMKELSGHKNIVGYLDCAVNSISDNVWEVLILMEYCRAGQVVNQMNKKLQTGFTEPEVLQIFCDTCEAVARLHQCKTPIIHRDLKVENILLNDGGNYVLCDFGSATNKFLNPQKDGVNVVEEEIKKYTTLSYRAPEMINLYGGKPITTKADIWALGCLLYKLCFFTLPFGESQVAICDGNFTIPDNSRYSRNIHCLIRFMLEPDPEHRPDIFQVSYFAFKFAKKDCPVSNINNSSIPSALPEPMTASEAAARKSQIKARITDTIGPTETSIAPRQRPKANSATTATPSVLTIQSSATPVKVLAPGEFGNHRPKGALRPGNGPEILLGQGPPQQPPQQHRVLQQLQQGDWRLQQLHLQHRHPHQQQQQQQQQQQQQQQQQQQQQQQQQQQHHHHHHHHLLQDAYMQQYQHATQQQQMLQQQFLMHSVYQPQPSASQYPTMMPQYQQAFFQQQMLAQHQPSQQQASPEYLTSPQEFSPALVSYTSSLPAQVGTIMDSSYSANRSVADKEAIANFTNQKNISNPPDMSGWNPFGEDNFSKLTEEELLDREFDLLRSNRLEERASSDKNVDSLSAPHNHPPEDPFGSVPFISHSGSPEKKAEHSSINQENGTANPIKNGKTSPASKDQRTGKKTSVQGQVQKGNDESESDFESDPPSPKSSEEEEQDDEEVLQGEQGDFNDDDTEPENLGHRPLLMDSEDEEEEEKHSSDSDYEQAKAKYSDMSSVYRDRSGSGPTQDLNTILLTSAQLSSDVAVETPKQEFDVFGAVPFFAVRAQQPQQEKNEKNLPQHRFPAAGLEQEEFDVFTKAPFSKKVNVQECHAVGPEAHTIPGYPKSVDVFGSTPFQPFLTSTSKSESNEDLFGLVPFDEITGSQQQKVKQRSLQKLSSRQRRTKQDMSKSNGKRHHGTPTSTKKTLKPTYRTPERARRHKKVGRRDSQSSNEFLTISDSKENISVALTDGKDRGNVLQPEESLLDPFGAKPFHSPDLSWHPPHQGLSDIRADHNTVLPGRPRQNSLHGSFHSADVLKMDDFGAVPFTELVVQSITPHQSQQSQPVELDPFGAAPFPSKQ
T14 sequence (Q8NG66 whole entry): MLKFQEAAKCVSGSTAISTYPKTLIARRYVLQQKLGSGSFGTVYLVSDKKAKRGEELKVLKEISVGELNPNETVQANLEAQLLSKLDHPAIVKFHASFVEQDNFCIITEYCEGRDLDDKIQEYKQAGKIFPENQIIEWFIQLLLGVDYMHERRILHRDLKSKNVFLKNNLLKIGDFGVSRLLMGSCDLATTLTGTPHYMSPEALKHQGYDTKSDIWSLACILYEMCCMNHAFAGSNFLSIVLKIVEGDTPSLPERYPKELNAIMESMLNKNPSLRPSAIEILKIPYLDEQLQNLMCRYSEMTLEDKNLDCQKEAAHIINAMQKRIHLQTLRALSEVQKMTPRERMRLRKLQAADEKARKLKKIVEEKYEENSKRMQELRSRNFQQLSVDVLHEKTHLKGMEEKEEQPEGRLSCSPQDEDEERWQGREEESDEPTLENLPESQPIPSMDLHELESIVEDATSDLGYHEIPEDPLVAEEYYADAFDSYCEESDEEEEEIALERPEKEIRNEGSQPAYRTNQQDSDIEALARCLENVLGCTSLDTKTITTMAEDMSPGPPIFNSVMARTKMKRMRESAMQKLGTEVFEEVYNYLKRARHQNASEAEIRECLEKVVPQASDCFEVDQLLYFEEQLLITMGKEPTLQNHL
T16 sequence (P00519 whole entry E255K): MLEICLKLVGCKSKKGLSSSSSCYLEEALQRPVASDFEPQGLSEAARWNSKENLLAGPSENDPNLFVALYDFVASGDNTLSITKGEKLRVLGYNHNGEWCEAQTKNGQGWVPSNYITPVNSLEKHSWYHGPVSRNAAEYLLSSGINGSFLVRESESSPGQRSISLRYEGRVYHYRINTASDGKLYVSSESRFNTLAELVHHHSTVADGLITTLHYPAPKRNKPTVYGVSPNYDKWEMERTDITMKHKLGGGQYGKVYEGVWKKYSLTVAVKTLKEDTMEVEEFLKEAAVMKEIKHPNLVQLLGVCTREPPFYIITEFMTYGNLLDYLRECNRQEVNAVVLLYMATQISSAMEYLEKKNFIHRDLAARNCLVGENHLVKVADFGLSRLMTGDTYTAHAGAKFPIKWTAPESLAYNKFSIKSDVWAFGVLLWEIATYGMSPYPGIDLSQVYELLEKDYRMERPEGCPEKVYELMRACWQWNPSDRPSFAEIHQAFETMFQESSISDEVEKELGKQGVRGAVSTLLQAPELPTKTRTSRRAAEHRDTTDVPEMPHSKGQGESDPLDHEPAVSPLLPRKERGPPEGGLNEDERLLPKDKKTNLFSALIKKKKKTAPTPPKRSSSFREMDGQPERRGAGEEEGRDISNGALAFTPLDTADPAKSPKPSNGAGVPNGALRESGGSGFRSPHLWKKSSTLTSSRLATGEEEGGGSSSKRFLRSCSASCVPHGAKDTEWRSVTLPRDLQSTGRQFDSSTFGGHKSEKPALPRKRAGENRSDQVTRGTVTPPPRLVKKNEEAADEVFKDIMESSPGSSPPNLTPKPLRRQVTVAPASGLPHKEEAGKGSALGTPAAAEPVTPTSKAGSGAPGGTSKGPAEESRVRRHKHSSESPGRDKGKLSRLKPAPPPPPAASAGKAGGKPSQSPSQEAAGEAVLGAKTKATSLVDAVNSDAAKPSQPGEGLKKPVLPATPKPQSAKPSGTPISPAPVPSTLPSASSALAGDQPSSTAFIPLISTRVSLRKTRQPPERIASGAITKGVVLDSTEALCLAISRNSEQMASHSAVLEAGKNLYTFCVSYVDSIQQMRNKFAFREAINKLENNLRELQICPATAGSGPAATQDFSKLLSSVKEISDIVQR
T15 sequence (Q14164 whole entry): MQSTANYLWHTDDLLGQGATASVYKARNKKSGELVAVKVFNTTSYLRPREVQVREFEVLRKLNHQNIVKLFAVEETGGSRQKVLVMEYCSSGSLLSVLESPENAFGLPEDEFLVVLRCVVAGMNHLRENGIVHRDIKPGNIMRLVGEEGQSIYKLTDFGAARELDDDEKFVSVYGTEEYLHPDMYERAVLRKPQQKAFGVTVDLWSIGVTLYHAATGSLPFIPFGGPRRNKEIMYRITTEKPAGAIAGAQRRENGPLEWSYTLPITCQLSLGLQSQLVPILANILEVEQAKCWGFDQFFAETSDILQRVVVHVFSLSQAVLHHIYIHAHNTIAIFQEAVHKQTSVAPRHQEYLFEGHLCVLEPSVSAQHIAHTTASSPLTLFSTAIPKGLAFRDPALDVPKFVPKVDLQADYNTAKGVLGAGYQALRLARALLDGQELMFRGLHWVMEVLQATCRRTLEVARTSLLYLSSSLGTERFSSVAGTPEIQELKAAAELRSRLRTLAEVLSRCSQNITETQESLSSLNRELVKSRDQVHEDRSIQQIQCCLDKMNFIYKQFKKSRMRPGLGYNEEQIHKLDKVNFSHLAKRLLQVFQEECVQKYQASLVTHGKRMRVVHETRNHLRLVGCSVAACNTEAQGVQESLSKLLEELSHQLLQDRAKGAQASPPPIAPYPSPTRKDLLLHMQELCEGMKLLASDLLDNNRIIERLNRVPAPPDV
T12 sequence (Q9NWZ3 whole entry): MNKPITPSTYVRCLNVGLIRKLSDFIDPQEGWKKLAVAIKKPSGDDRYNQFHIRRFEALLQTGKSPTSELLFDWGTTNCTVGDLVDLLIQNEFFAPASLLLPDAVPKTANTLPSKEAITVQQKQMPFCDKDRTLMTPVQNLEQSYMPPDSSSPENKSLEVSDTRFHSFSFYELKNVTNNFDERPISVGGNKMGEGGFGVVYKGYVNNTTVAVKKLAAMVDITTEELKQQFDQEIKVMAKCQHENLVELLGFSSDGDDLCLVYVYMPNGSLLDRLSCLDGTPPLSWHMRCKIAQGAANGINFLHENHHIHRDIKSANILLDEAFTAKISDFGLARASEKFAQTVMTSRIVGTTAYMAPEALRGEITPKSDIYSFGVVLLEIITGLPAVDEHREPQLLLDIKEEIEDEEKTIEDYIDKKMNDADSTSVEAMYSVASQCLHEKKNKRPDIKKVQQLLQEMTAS

C=CC(=O)N1CCC[C@@H](n2nc(-c3ccc(OCc4cccc(C)n4)c(Cl)c3)c3c(N)ncnc32)C1 [CHMFL-EGFR-26]
remaining binding at 1 µM (INSR): 100%
remaining binding at 1 µM (MEK4): 80%
remaining binding at 1 µM [1]: 91%
remaining binding at 1 µM (PIK4CB): 100%
remaining binding at 1 µM (TNNI3K): 89%
remaining binding at 1 µM (MAP3K1): 82%
remaining binding at 1 µM (SIK2): 93%
remaining binding at 1 µM (CAMK1G): 97%
remaining binding at 1 µM (GRK4): 88%
remaining binding at 1 µM (BIKE): 96%
remaining binding at 1 µM (LTK): 94%
remaining binding at 1 µM (IRAK4): 100%
remaining binding at 1 µM (AURKB): 77%
remaining binding at 1 µM (NEK11): 100%
remaining binding at 1 µM (IKK-epsilon): 100%
remaining binding at 1 µM [2]: 98%
remaining binding at 1 µM (LOK): 0.2%
remaining binding at 1 µM (VRK2): 95%
remaining binding at 1 µM (AMPK-alpha2): 90%
remaining binding at 1 µM (MRCKA): 64%
remaining binding at 1 µM (CDKL5): 100%
remaining binding at 1 µM (PYK2): 55%
remaining binding at 1 µM (MST4): 99%
remaining binding at 1 µM (OSR1): 95%
mTOR-p70S6K and eIF4E phosphorylations [3]: completely blocked
autophosphorylation of EGFR Y1068 [4]: almost completely suppress
remaining binding at 1 µM (NEK2): 18%
remaining binding at 1 µM (GSK3B): 97%
remaining binding at 1 µM (MET): 96%
remaining binding at 1 µM (FLT3): 95%
remaining binding at 1 µM (MARK3): 100%
remaining binding at 1 µM (KIT-autoinhibited): 95%
remaining binding at 1 µM (PIK3CB): 94%
remaining binding at 1 µM (EPHB1): 96%
remaining binding at 1 µM (LCK): 33%
remaining binding at 1 µM (FLT3(N841I)): 93%
remaining binding at 1 µM (SNARK): 25%
remaining binding at 1 µM (EIF2AK1): 100%
